Assay results reported in patent US12318370B2, “Processes for preparing solid state forms” (Varda Space Industries, Inc., priority 2022, dated 2025).

How the values were obtained:
Type in all cases: physicochemical
[1] = Temperature and humidity stress test, 40° C./75% RH, XRPD; conditions: for Change of solid form under stress, in words: 40° C. and 75% RH, XRPD at 30, 60 and 96 days; for Solid form after stress test / Time at which conversion to Form I was detected: 40° C./75% RH; for Solid form after stress test: XRPD
Method: XRPD was measured at 30, 60, and 96 days (FIG. 15).

Manual grinding, XRPD = conditions: mortar and pestle, five cycles of 2 minutes (10 minutes total)
[2] = Dynamic vapor sorption (DVS); conditions: 5% to 95% RH
Excerpt: No hysteresis was observed. DVS isotherms were characterized using a VTI SGA-100 Vapor Sorption Analyzer. The sample was not dried prior to analysis. Sorption and desorption isotherms were collected over a range from 5% to 95% RH at 10% RH increments under a dry air purge. The equilibrium criterion used for analysis was less than 0.0100%^0/weight change in five minutes with a maximum equilibration time of three hours and a 2-minute data logging interval. Data were not corrected for the initial moisture content of the sample.

[3] = Short-term thermal stability, Raman microscopy; conditions: sequentially 15 minutes at 50° C., 70° C. and 90° C., Raman after each
Method: Short-term thermal stability experiments were conducted by holding the material from example 1f sequentially for 15 minutes at 50° C., 15 minutes at 70° C., and 15 minutes at 90° C. The sample was analyzed by Raman microscopy after each temperature exposure. […] FIG. 10 compares the short-term thermal stability results to the reference spectra from FIG. 9.

[4] = Compression at 700 lbs, XRPD; conditions: XRPD before and after, listed as ritonavir Form III
[5] = Longer-term stability at ambient conditions, Raman; conditions: 5 weeks and up to 23 weeks
Method: Additionally, a longer-term stability study was performed.

Row | Change of solid form under stress, in words [1] | Solid form after stress test ([1]; 30 days) | Solid form after stress test ([1]; 60 days) | Solid form after stress test ([1]; 96 days) | Time at which conversion to Form I was detected ([1]; listed as amorphous ritonavir) [days] | Solid form after manual grinding (Manual grinding, XRPD; listed as Amorphous material) | Solid form after manual grinding (Manual grinding, XRPD) | Hygroscopicity [2] | Solid form after short-term thermal exposure [3] | Change of solid form after compression [4] | Solid form after stress test ([1]; 96 days, listed as ritonavir Form III) | Time at which conversion to Form I was detected ([1]; listed as Form III ritonavir) [days] | Time at which conversion to Form I was detected ([1]; listed as ritonavir Form III) [days] | Solid form after storage at ambient conditions [5] | Solid form after manual grinding (Manual grinding, XRPD; listed as ritonavir Form III) | Compound
1 | No change | Form I | Form I | Form I | ≤ 30 | remained unchanged | – | – | – | – | – | – | – | – | – | CC(C)c1nc(CN(C)C(=O)N[C@H](C(=O)N[C@@H](Cc2ccccc2)C[C@H](O)[C@H](Cc2ccccc2)NC(=O)OCc2cncs2)C(C)C)cs1 (single isomer, unassigned) [Amorphous, 10-hydroxy-2-methyl-5-(1-methylethyl)-1-[2-(1-methylethyl)-4-thiazolyl]-3,6-dioxo-8,11-bis(phenylmethyl)-2,4,7,12-tetraazatridecan-13-oic acid, 5-thiazolylmethyl ester, [SS-(5R*,8R*,10R*,1R*)]]
2 | No change | Form I | Form I | Form I | – | – | Mixture of amorphous and Form I | – | – | – | – | – | – | – | – | CC(C)c1nc(CN(C)C(=O)N[C@H](C(=O)N[C@@H](Cc2ccccc2)C[C@H](O)[C@H](Cc2ccccc2)NC(=O)OCc2cncs2)C(C)C)cs1 (single isomer, unassigned) [Form I, 10-hydroxy-2-methyl-5-(1-methylethyl)-1-[2-(1-methylethyl)-4-thiazolyl]-3,6-dioxo-8,11-bis(phenylmethyl)-2,4,7,12-tetraazatridecan-13-oic acid, 5-thiazolylmethyl ester, [SS-(5R*,8R*,10R*,1R*)]]
3 | – | – | – | – | – | – | mixture of amorphous and Form II | – | – | – | – | – | – | – | – | CC(C)c1nc(CN(C)C(=O)N[C@H](C(=O)N[C@@H](Cc2ccccc2)C[C@H](O)[C@H](Cc2ccccc2)NC(=O)OCc2cncs2)C(C)C)cs1 (single isomer, unassigned) [Form II, 10-hydroxy-2-methyl-5-(1-methylethyl)-1-[2-(1-methylethyl)-4-thiazolyl]-3,6-dioxo-8,11-bis(phenylmethyl)-2,4,7,12-tetraazatridecan-13-oic acid, 5-thiazolylmethyl ester, [SS-(5R*,8R*,10R*,1R*)]]
4 | – | Form III | Form III + Form I | Form III + Form I | – | – | – | not hygroscopic | remained as Form III ritonavir | no change | presence of Form I peaks | 60 | 60 | remained unchanged | amorphous with traces of Form III | CC(C)c1nc(CN(C)C(=O)N[C@H](C(=O)N[C@@H](Cc2ccccc2)C[C@H](O)[C@H](Cc2ccccc2)NC(=O)OCc2cncs2)C(C)C)cs1 (single isomer, unassigned) [Form III, 10-hydroxy-2-methyl-5-(1-methylethyl)-1-[2-(1-methylethyl)-4-thiazolyl]-3,6-dioxo-8,11-bis(phenylmethyl)-2,4,7,12-tetraazatridecan-13-oic acid, 5-thiazolylmethyl ester, [SS-(5R*,8R*,10R*,1R*)]]
